pIC50: −log10 of the molar value. Several values for one entry are separate records, joined by “and”; a condition that tells them apart may be missing. Identical values can stand only once. Like-named read-outs stand apart in the source and are kept apart here.
Assays:
[1] = molecular target: T1, CDK2-CYCLINA (Homo sapiens, UniProt P24941); assay: Microfluidic LabChip kinase inhibition assay, CDK2-CyclinA; format: biochemical; conditions: 50 μM ATP
T1 construct: purchased Millipore

[2] = molecular target: CDK1/B (Homo sapiens, UniProt P06493); assay: Additional inhibition assay, CDK1/B; format: biochemical
CDK1/B, sequence (P06493 whole entry): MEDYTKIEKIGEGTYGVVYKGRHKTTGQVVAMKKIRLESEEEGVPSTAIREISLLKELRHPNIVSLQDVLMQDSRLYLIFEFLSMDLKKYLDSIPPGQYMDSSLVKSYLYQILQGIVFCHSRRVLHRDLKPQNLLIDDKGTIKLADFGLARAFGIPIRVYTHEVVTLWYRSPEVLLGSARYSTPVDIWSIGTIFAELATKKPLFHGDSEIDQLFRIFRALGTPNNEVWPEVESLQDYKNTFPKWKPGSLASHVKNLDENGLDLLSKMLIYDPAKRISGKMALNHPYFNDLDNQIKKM
CDK1/B, sequence (P14635 whole entry partner): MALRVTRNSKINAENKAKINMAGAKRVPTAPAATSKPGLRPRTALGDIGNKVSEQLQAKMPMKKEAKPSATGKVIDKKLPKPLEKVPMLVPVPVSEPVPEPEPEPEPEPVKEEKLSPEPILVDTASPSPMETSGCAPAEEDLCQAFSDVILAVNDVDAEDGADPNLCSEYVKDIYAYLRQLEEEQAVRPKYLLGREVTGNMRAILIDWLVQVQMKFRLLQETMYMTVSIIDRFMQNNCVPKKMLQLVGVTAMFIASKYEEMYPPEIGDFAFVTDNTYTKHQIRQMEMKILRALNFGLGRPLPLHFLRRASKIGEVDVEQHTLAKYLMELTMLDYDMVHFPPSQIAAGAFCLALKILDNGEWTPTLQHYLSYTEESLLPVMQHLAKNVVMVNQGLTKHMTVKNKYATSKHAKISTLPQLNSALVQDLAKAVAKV

[3] = molecular target: CDK7 CyclinH (Homo sapiens, UniProt P50613); assay: Additional inhibition assay, CDK7 CyclinH; format: biochemical
CDK7 CyclinH, sequence (P50613 whole entry): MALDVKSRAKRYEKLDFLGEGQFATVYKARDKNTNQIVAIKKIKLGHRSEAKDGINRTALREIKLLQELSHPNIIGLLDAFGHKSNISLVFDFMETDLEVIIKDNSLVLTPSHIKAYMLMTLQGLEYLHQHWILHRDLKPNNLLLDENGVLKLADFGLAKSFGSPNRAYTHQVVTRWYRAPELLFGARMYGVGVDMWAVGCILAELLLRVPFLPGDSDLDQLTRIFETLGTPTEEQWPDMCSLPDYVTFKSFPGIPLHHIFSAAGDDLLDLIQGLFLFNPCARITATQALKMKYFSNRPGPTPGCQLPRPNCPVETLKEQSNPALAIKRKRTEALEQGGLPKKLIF
CDK7 CyclinH, sequence (P51946 whole entry partner): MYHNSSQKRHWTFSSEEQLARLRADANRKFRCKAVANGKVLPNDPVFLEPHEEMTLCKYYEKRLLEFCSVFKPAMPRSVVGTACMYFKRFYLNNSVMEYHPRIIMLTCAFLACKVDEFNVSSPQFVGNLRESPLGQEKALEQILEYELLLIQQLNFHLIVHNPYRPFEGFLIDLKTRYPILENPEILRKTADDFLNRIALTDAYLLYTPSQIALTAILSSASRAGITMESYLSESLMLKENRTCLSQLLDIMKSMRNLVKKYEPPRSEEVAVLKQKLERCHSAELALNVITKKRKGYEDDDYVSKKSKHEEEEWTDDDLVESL
CDK7 CyclinH, sequence (P51948 whole entry partner): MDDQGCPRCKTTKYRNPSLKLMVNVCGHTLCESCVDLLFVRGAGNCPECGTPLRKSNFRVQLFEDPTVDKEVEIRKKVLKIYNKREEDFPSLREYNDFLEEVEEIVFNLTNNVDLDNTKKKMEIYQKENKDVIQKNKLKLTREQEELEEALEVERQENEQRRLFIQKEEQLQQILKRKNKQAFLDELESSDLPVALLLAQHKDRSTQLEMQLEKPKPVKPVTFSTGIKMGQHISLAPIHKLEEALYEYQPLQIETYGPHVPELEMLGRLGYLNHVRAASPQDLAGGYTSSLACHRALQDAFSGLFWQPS

[4] = molecular target: T2, CDK9-CYCLINT1 (Homo sapiens, UniProt P50750); assay: Microfluidic LabChip kinase inhibition assay, CDK9-CyclinT1; format: biochemical
T2 construct: purchased Carna
T2 sequence (P50750 whole entry): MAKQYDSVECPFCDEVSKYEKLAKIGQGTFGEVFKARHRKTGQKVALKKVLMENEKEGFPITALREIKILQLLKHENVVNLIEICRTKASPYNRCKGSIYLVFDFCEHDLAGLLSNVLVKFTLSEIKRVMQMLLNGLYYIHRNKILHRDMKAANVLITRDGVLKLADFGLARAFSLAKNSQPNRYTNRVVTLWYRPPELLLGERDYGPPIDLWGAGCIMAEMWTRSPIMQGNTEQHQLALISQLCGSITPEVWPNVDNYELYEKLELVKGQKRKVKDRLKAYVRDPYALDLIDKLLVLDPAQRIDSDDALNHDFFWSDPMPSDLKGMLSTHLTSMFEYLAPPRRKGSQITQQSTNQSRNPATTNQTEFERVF
T2 sequence (O60563 whole entry partner): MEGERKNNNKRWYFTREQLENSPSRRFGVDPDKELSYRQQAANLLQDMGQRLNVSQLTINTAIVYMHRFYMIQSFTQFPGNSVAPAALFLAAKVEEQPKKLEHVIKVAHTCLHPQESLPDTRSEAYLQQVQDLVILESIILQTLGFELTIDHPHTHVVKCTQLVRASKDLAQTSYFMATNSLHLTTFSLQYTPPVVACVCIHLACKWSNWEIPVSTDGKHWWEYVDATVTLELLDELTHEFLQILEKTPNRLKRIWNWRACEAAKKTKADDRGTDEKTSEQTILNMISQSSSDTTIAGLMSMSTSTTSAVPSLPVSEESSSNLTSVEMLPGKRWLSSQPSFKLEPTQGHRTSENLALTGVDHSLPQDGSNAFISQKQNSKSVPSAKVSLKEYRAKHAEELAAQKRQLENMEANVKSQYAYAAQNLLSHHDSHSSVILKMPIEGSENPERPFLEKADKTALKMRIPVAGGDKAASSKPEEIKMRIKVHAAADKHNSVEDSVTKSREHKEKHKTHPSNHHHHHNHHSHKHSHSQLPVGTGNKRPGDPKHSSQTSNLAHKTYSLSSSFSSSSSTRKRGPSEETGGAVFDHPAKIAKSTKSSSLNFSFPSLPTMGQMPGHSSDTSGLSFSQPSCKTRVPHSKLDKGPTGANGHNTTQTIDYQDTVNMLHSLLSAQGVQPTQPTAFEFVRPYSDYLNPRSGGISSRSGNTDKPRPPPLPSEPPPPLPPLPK

[5] = molecular target: CDK4-CYCLIND1 (Homo sapiens, UniProt P11802); assay: Microfluidic LabChip kinase inhibition assay, CDK4-CyclinD1; conditions: 200 μM ATP
CDK4-CYCLIND1, sequence (P11802 whole entry): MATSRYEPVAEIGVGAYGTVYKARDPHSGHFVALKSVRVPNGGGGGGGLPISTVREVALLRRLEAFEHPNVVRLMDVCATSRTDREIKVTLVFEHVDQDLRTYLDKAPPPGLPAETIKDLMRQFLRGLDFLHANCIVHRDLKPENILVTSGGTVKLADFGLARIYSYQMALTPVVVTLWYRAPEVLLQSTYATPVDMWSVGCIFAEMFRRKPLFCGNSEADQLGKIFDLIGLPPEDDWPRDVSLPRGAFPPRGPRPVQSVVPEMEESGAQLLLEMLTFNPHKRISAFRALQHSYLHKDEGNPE
CDK4-CYCLIND1, sequence (P24385 whole entry partner): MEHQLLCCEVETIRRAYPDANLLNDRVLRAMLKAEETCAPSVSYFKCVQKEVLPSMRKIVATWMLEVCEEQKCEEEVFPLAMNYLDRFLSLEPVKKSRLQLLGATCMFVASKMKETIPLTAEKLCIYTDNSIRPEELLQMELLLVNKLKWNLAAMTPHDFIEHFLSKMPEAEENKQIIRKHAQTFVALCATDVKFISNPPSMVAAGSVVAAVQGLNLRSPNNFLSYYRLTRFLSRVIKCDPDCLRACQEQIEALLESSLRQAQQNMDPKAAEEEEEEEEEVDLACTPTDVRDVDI
Description: Inhibition assays were performed using microfluidic LabChip 300 Drug Discovery System from Caliper Life Sciences. […] The assay has a total volume of 10 μL consisting of 5 μL of enzyme and buffer and 5 μL of substrate and buffer. The test compounds were diluted in 100% dimethylsulfoxide (DMSO) using 3-fold dilution steps. […] Compounds were tested in a single well for each dilution and the final concentration of DMSO was maintained at 1%.
The assay buffer contained 100 mM HEPES, pH 7.5, 0.01% Triton X-100, 0.1% bovine serum albumin (BSA), 5 mM MgCl2; 1 mM dithiothreitol (DTT), 10 μM sodium orthovanadate, and 10 μM β-glycerophosphate.
The assay was conducted by adding 5 μL of enzyme, adenosine triphosphate (ATP) and buffer to an assay plate. A 100 nL aliquot of the diluted compounds were added to the plate. The assay was initiated by the addition of 5 μL of phosphoenolpyruvate substrate (PEP) in buffer. […] The reaction was terminated by the addition of EDTA. The plates were analyzed using a Caliper LabChip 3000.

[6] = molecular target: T3, CDK6-CYCLIND3 (Homo sapiens, UniProt Q00534); assay: Microfluidic LabChip kinase inhibition assay, CDK6-CyclinD3; format: biochemical; conditions: 300 μM ATP; for IC50: CDK6 CyclinD3 IC50 (μM)
T3 construct: purchased Carna
T3 sequence (Q00534 whole entry): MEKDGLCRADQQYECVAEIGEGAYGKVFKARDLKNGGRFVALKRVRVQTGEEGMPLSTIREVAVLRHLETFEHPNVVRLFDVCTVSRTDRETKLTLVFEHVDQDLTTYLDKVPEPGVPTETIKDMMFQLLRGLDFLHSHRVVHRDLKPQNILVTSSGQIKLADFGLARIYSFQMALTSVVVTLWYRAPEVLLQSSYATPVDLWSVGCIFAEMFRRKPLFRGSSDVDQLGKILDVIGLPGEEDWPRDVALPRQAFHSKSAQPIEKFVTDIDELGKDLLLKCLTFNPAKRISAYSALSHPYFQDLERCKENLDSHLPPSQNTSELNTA
T3 sequence (P30281 whole entry partner): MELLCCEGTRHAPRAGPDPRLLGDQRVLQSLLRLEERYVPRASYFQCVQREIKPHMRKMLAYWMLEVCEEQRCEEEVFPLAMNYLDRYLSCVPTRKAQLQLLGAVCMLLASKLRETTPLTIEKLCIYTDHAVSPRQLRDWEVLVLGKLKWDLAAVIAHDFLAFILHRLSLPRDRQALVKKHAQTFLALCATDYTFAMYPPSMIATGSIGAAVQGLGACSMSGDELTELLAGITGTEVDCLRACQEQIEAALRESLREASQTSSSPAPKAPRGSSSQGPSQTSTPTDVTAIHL

[7] = Table 3a, 10 μM ATP, read-out: CDK9 CyclinT1 IC50
[8] = CDK4 CyclinD1 IC50 (μM), Table 3a, second value in parentheses on the next line
[9] = CDK4 CyclinD1 IC50 (μM), Table 3b, second value in parentheses on the next line
[10] = Table 3a, read-out: CDK6 CyclinD3 IC50
[11] = Table 3b, read-out: CDK6 CyclinD3 IC50
[12] = Table 2, 2 nM enzyme, read-out: CDK6 IC50
[13] = CDK4 IC50 (μM), Table 2, 1 nM enzyme

SMILES | pIC50 ([1]; Table 3a) | pIC50 ([1]; Table 3b) | pIC50 ([2]; Table 3a) | pIC50 ([2]; Table 3b) | pIC50 ([3]; Table 3a) | pIC50 ([3]; Table 3b) | pIC50 [4, 7] | IC50 [5, 8] | IC50 [5, 9] | IC50 ([6]; Table 3a) [µM] | IC50 ([6]; Table 3b) [µM] | pIC50 [4] | pIC50 [6, 10] | pIC50 [6, 11] | pIC50 [6, 12] | IC50 [5, 13] [µM]
CC(C)N1CCN(c2ccc(Nc3ncc4c(n3)N(C3CCCC3)C3(CC(=O)NC3=O)C4)cc2)CC1 (stereo not drawn) [Compound C134, 7′-cyclopentyl-2′-((4-(4-isopropylpiperazin-1-yl)phenyl)amino)-5′,7′-dihydrospiro[pyrrolidine-3,6′-pyrrolo[2,3-d]pyrimidine]-2,5-dione] | 5.64 | 5.64 | 5.75 | 5.75 | 5.09 | 5.09 |  |  |  |  |  |  |  |  |  | 
CN1CCN(c2ccc(Nc3ncc4c(n3)N(C3CCCC3)C3(CCNC3=O)C4)cn2)CC1 (stereo not drawn) [Compound C129, 7′-cyclopentyl-2′-((6-(4-methylpiperazin-1-yl)pyridin-3-yl)amino)-5′,7′-dihydrospiro[pyrrolidine-3,6′-pyrrolo[2,3-d]pyrimidin]-2-one] | < 5.00 | < 5.00 | 5.07 | 5.07 | < 5.00 | < 5.00 | 7.20 | 0.103 µM | 0.103 µM |  |  |  |  |  |  | 
CN1CC2(C1)CN(c1ccc(Nc3ncc4c(n3)N(C3CCCC3)C3(CC(=O)NC3=O)C4)cc1F)C2 (stereo not drawn) [Compound C149, 7′-cyclopentyl-2′-((3-fluoro-4-(6-methyl-2,6-diazaspiro[3.3]heptan-2-yl)phenyl)amino)-5′,7′-dihydrospiro[pyrrolidine-3,6′-pyrrolo[2,3-d]pyrimidine]-2,5-dione] | < 5.00 | < 5.00 | < 5.00 | < 5.00 | < 5.00 | < 5.00 | 7.07 | 0.593 µM | 0.593 µM |  |  |  |  |  |  | 
O=C1NCCC12Cc1cnc(Nc3ccc(OCCN4CCCC4)nc3)nc1N2C1CCCC1 (stereo not drawn) [Compound C170, 7′-cyclopentyl-2′-((6-(2-(pyrrolidin-1-yl)ethoxy)pyridin-3-yl)amino)-5′,7′-dihydrospiro[pyrrolidine-3,6′-pyrrolo[2,3-d]pyrimidin]-2-one] | < 5.00 | < 5.00 | < 5.00 | < 5.00 | < 5.00 | < 5.00 | 7.55 | 0.233 µM | 0.233 µM |  |  |  |  |  |  | 
CN(C)[C@H]1CCN(C(=O)c2ccc(Nc3ncc4c(n3)N(C3CCCC3)C3(CCNC3=O)C4)cc2)C1 (stereo partly drawn) [Compound C178, 7′-cyclopentyl-2′-((4-((S)-3-(dimethylamino)pyrrolidine-1-carbonyl)phenyl)amino)-5′,7′-dihydrospiro[pyrrolidine-3,6′-pyrrolo[2,3-d]pyrimidin]-2-one] | 6.17 | 6.17 | 5.98 | 5.98 | < 5.00 | < 5.00 | 8.06 | 0.0453 µM | 0.0453 µM |  |  |  |  |  |  | 
CC1CN(c2ccc(Nc3ncc4c(n3)N(C3CCCC3)C3(CCNC3=O)C4)cc2)CC(C)N1 (stereo not drawn) [Compound C207, 7′-cyclopentyl-2′-((4-(3,5-dimethylpiperazin-1-yl)phenyl)amino)-5′,7′-dihydrospiro[pyrrolidine-3,6′-pyrrolo[2,3-d]pyrimidin]-2-one] | 5.02 | 5.02 | < 5.00 | < 5.00 | < 5.00 | < 5.00 | 6.83 | 0.341 µM | 0.341 µM |  |  |  |  |  |  | 
CN1CCN(c2ccc(Nc3ncc4c(n3)N(C3CCCC3)C3(CC(=O)NC3=O)C4)cc2)CC1 (single isomer, unassigned) [Compound C137, 7′-cyclopentyl-2′-((4-(4-methylpiperazin-1-yl)phenyl)amino)-5′,7′-dihydrospiro[pyrrolidine-3,6′-pyrrolo[2,3-d]pyrimidine]-2,5-dione] | 5.48 | 5.48 | 5.78 | 5.78 | 6.23 | 6.23 | 6.44 | 0.202 µM | 0.202 µM |  |  |  |  |  |  | 
CN(C)CCOc1ccc(Nc2ncc3c(n2)N(C2CCCC2)C2(CCNC2=O)C3)cc1 (stereo not drawn) [Compound C108, 7′-cyclopentyl-2′-((4-(2-(dimethylamino)ethoxy)phenyl)amino)-5′,7′-dihydrospiro[pyrrolidine-3,6′-pyrrolo[2,3-d]pyrimidin]-2-one] | < 5.00 | < 5.00 | 5.20 | 5.20 | < 5.00 | < 5.00 | 7.68 | 0.124 µM | 0.124 µM |  |  |  |  |  |  | 
CN1CCN(c2ccc(Nc3ncc4c(n3)N(C3CCCC3)C3(CC(=O)NC3=O)C4)cc2F)CC1 (stereo not drawn) [Compound C198, 7′-cyclopentyl-2′-((3-fluoro-4-(4-methylpiperazin-1-yl)phenyl)amino)-5′,7′-dihydrospiro[pyrrolidine-3,6′-pyrrolo[2,3-d]pyrimidine]-2,5-dione] | 6.61 | 6.61 |  |  | 6.77 | 6.77 |  |  |  |  |  |  |  |  |  | 
CN1CCC(c2ccc(Nc3ncc4c(n3)N(C3CCCC3)C3(CCNC3=O)C4)cc2)CC1 (stereo not drawn) [Compound C164, 7′-cyclopentyl-2′-((4-(1-methylpiperidin-4-yl)phenyl)amino)-5′,7′-dihydrospiro[pyrrolidine-3,6′-pyrrolo[2,3-d]pyrimidin]-2-one] | < 5.00 | < 5.00 | < 5.00 | < 5.00 | < 5.00 | < 5.00 | 6.93 | 0.167 µM | 0.167 µM |  |  |  |  |  |  | 
CN1CCN(c2ccc(Nc3ncc4c(n3)N(C3CCCC3)C3(CCNC3=O)C4)cc2F)CC1 (single isomer, unassigned) [Compound C197, 7′-cyclopentyl-2′-((3-fluoro-4-(4-methylpiperazin-1-yl)phenyl)amino)-5′,7′-dihydrospiro[pyrrolidine-3,6′-pyrrolo[2,3-d]pyrimidin]-2-one] | 5.68 | 5.68 |  |  | 4.66 | 4.66 |  | 0.0517 µM and 0.028 µM | 0.0517 µM and 0.028 µM | 0.258 | 0.258 | 7.33 |  |  |  | 
O=C1NCCC12Cc1cnc(Nc3ccc(N4CCNCC4)c(F)c3)nc1N2C1CCCC1 (single isomer, unassigned) [Compound C203, 7′-cyclopentyl-2′-((3-fluoro-4-(piperazin-1-yl)phenyl)amino)-5′,7′-dihydrospiro[pyrrolidine-3,6′-pyrrolo[2,3-d]pyrimidin]-2-one] |  |  |  |  |  |  |  | 0.0245 µM | 0.0245 µM |  |  |  | 6.98 | 6.98 |  | 
O=C1NCCC12C(=O)N(C1CCCC1)c1nc(Nc3ccc(N4CCC(N5CCOCC5)CC4)c(F)c3)ncc12 (stereo not drawn) [Compound C106, 7′-cyclopentyl-2′-((3-fluoro-4-(4-morpholinopiperidin-1-yl)phenyl)amino)spiro[pyrrolidine-3,5′-pyrrolo[2,3-d]pyrimidine]-2,6′(7′H)-dione] |  |  |  |  |  |  |  |  |  |  |  |  |  |  | 4.83 | 7.35
CN1CCN(c2ccc(Nc3ncc4c(n3)N(C3CCCC3)C3(CCN(C)C3=O)C4)nc2)CC1 (stereo not drawn) [Compound C20, 7′-cyclopentyl-1-methyl-2′-((5-(4-methylpiperazin-1-yl)pyridin-2-yl)amino)-5′,7′-dihydrospiro[pyrrolidine-3,6′-pyrrolo[2,3-d]pyrimidin]-2-one] |  |  |  |  |  |  |  |  |  |  |  |  |  |  | < 4.52 | > 30
CN1CCN(c2ccc(Nc3ncc4c(n3)N(C3CCCC3)C3(CCNC3=O)C4)nc2)CC1 (stereo not drawn) [Compound C34, 7′-cyclopentyl-2′-((5-(4-methylpiperazin-1-yl)pyridin-2-yl)amino)-5′,7′-dihydrospiro[pyrrolidine-3,6′-pyrrolo[2,3-d]pyrimidin]-2-one] |  |  |  |  |  |  |  |  |  |  |  |  |  |  | 5.43 | 1.16
CN1CCN(c2ccc(Nc3ncc4c(n3)N(C3CCCCC3)C3(CCNC3=O)C4)cn2)CC1 (stereo not drawn) [Compound C201, 7′-cyclohexyl-2′-((6-(4-methylpiperazin-1-yl)pyridin-3-yl)amino)-5′,7′-dihydrospiro[pyrrolidine-3,6′-pyrrolo[2,3-d]pyrimidin]-2-one] |  |  |  |  |  |  |  | 0.0393 µM | 0.0393 µM |  |  |  | 6.94 | 6.94 |  | 
CN1CCC2(Cc3cnc(Nc4ccc(OCCN5CCCC5)cn4)nc3N2C2CCCC2)C1=O (stereo not drawn) [Compound C5, 7′-cyclopentyl-1-methyl-2′-((5-(2-(pyrrolidin-1-yl)ethoxy)pyridin-2-yl)amino)-5′,7′-dihydrospiro[pyrrolidine-3,6′-pyrrolo[2,3-d]pyrimidin]-2-one] |  |  |  |  |  |  |  |  |  |  |  |  |  |  | < 4.52 | > 30
O=C1NCCC12Cc1cnc(Nc3ccc(N4CCC(N5CCOCC5)CC4)cc3)nc1N2C1CCCC1 (stereo not drawn) [Compound C95, 7′-cyclopentyl-2′-((4-(4-morpholinopiperidin-1-yl)phenyl)amino)-5′,7′-dihydrospiro[pyrrolidine-3,6′-pyrrolo[2,3-d]pyrimidin]-2-one] |  |  |  |  |  |  |  |  |  |  |  |  |  |  | 6.00 | 0.273
CN1CCN(c2ccc(Nc3ncc4c(n3)N(C3CCCC3)C(=O)C43CCNC3=O)nc2)CC1 (stereo not drawn) [Compound C100, 7′-cyclopentyl-2′-((5-(4-methylpiperazin-1-yl)pyridin-2-yl)amino)spiro[pyrrolidine-3,5′-pyrrolo[2,3-d]pyrimidine]-2,6′(7′H)-dione] |  |  |  |  |  |  |  |  |  |  |  |  |  |  | 4.48 | 13.7
